Laboratory results: patent US6391303B1, “Methods and compositions for inducing oral tolerance in mammals” (Emisphere Technologies, Inc., priority 1996, dated 2002)

Tests used:
[1] = test system: Experimental Autoimmune Encephalomyelitis (EAE)
Experimental: Two days after the (last) oral dose, all groups were challenged in the footpad with 0.05 mg of MBP emulsified with Complete Freund's Adjuvant containing Mycobacterium tuberculosis H37Ra, 4 mg/ml. Clinical signs of disease were observed starting on Day 11 after the challenge and rated on a scale of 0 (no disease) to 5 (death).

[2] = test system: anti-HA (influenza) IgG antibodies; assay: ELISA for serum anti-HA IgG after single oral dose of influenza vaccine with delivery agent; format: in vivo, BALB/c mice; conditions: single oral dose 15 μg influenza vaccine A/Johannesburg/39/94 (H3N2) + 500 mg/kg delivery agent
Experimental: Ten BALB/c mice were administered a single oral dose of 15 μg of influenza antigen [influenza vaccine A/Johannesburg/39/94 (H3N2)] per mouse with 500 mg/kg of E352.
1. Coat plates with HA antigen, 10 μg/mL in carbonate buffer.
3. Block with Superblock™ or 1/10 diluted Bovine Serum Albumin (BSA).
4. Add 100 μL per well of diluent (Superblock™ or 1/15 diluted BSA) to all except the top row.
5. In the first row, add 150 μL per well of 1/100 diluted test serum in duplicate and serially dilute 3× down the plate. Leave 2 empty wells as background.
6. Incubate 2 hours at room temperature.
8. To each well, add 100 μl of IgG isotype-specific anti-mouse alkaline-phosphatase conjugated antibody (diluted with 4% PEG 6000).20. Incubate overnight at 4/C.
10. Add 100 μL per well of p-nitrophenyl phosphate (pNPP) substrate solution and incubate in the dark with shaking for 30 minutes.
11. Read and record OD405 after subtracting the background absorbance.

[3] = single dose MBP + delivery agent versus one or five doses of MBP alone

SMILES: O=C(O)CCCc1ccc(NC(=O)c2ccccc2O)cc1 [E352, 4-[4-(N-salicyloyl)]aminophenyl butyric acid]
- Mean Disease Index per group (highest mean score multiplied by the duration of symptoms) [1, 3]: suppressed these disease parameters significantly
- mean Maximal Score per group [1, 3]: suppressed these disease parameters significantly
- mean day of onset of paralysis ([1]; single oral dose 1.0 mg MBP alone or with delivery agent, day after challenge): 16 days
- clinical disease (Mean Clinical Score) of EAE ([1]; single oral dose 1.0 mg MBP with delivery agent, footpad challenge 0.05 mg MBP/CFA, scale 0 to 5): suppression of clinical disease
- serum anti-HA IgG titer relative to control fed only influenza antigen [2]: significantly suppressed the production of anti-influenza antibodies
